# Assay results taken from patent publication US8802702B2, “Compounds for reducing drug resistance and uses thereof” (The General Hospital Corporation, priority 2009, dated 2014).
# Read-outs that look alike come from different tables or passages of the source.
# Columns and labels:
# [1] = tested on: Pgp1 mediated transport in SKOV-3TR cells; experiment: Duration of MDR reversal after incubation and washout; assay type: cell-based, human; conditions: overnight exposure 1 μM
# Protocol: Drug cytotoxicity was determined by MTT assay.
# The cells were then incubated for 4 days with addition of varying concentrations of paclitaxel. Final results were determined by MTT assay as described above.
# OVCAR8TR cells = experiment: Reversal of drug resistance, cytotoxicity (MTT) assay in OVCAR8TR; assay type: cell-based, human; conditions: for IC50: Homo sapiens
# [2] = molecular target: T1, Pgp1 efflux in SKOV-3TR and OVCAR8TR cells (Homo sapiens, UniProt P08183); experiment: Calcein AM drug efflux assay (VYBRANT kit) in resistant cells; assay type: cell-based
# T1 construct: endogenous in cells; host or cells: SKOV-3TR and OVCAR8TR (paclitaxel-selected resistant lines, not transfected)
# T1 sequence (P08183 whole entry): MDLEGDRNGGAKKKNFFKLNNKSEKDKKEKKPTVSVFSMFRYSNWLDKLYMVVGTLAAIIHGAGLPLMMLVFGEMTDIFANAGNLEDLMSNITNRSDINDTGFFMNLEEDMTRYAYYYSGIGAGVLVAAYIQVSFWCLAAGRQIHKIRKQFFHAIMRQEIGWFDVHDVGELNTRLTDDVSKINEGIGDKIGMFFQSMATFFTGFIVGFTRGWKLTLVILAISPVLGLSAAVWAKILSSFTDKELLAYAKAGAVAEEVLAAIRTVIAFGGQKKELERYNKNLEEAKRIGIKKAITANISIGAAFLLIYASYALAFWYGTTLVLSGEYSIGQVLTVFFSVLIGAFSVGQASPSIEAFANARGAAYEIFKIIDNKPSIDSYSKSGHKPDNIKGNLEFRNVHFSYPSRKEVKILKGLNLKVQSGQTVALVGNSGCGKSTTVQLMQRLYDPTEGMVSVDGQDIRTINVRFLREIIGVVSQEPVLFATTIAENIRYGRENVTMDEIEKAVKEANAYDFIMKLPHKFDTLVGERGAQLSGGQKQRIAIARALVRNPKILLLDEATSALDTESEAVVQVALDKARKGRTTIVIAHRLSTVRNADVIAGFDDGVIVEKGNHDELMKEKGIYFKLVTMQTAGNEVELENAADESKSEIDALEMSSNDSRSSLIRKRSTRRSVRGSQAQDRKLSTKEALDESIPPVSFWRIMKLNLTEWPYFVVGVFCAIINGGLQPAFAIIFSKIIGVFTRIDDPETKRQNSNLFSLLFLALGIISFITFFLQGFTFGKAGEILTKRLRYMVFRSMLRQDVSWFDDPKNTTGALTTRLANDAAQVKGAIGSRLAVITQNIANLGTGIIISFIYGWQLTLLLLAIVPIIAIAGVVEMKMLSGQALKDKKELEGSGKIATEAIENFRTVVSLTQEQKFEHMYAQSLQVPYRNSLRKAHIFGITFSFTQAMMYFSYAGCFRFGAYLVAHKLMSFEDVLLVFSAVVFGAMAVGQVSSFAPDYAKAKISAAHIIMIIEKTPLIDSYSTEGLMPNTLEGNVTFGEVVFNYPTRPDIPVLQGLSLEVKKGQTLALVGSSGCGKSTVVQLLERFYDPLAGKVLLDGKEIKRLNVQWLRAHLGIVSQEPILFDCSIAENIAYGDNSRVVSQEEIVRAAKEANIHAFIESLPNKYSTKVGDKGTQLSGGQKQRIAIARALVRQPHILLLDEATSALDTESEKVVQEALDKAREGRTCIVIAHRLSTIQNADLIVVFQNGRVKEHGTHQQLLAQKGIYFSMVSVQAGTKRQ
# Protocol: Calcein-AM assay was optimized and performed using the VYBRANT™ multi-drug resistance assay kit (Invitrogen/Molecular Probes) and SKOV-3TR cells. Cells were seeded at 50,000 cells/well (100 μl of culture medium) in a 96-well plate and incubated for 24 h. […] The cell fluorescence images were acquired by a fluorescence microscope (A, C) and quantities of fluorescence were measured in a SPECTRAmax Microplate Spectrofluorometer (B, D).
# (§1) The VYBRANT™ multi-drug resistance assay kit (Invitrogen/Molecular Probes) was used to measure drug efflux properties of different resistant cell lines. This assay utilizes the fluorogenic dye calcein acetoxymethyl ester (calcein AM) as a substrate for efflux activity of Pgp1 or other membrane pump ABC proteins. Calcein AM is taken up by cells and hydrolyzed by cytoplasmic esterases to fluorescent calcein. Calcein AM is well retained in the cytosol. However, multi-drug resistant cells expressing high levels of Pgp1 rapidly extrude non-fluorescent calcein AM from the plasma membrane, reducing accumulation of fluorescent calcein in the cytosol. Drug sensitive and resistant cells (3×10^5) were cultured in 96-well plate for 24 hours and then incubated in 0.25 μM calcein AM in 150 μl total volume. After 30 minutes, the cells in plate were washed and centrifuged twice with 200 μl cold RPMI1640 culture medium, and cell fluorescence was measured at a […] on a SPECTRAMAX™ Microplate Spectrofluorometer (Molecular Devices).
# SKOV-3TR cells = experiment: Reversal of drug resistance, cytotoxicity (MTT) assay in SKOV-3TR; assay type: cell-based; conditions: for IC50: Homo sapiens, SKOV3TR
# Protocol: FIGS. 1 (a-b) are graphs that depict the effects of NSC23925 on drug sensitivity in ovarian cancer cells; 1(a) depicts the effects of NSC23925 on sensitive (SKOV-3) and resistant (SKOV-3TR) cells; 1(b) depicts the effects of NSC23925 on sensitive (OVCAR8) and resistant (OVCAR8TR) cells. […] The relative sensitivity of each line to paclitaxel was determined by MTT assay, as described below in the Examples section, 6 days post treatment. […]
# Drug cytotoxicity was assessed in vitro using the MTT assay. SKOV-3 and SKOV-3TR cells were used herein. Briefly, 2×10^3 cells per well were plated in 96-well plates in culture medium (RPMI 1640 supplemented with 10% fetal bovine serum and penicillin/streptomycin) containing increasing concentrations of drug. […] The resulting formazan product was dissolved with acid-isopropanol and the absorbance at a wavelength of 490 nm (A490) was read on a SPECTRAmax® Microplate Spectrophotometer (Molecular Devices, Sunnyvale, Calif.). The absorbance values were normalized by assigning the value of the control line in the medium without drug to 1.0 and the value of the no cell control to 0. Experiments were performed in triplicate.
# [3] = tested on: H69/AR cells (express MRP1, not Pgp1); experiment: Reversal of drug resistance in non-Pgp1 MDR cells expressing MRP1; assay type: cell-based, human
# [4] = tested on: OVCAR8 and OVCAR8TR cells; experiment: Cytotoxicity of NSC23925 alone (MTT assay), OVCAR8/OVCAR8TR; assay type: cell-based, human
# Protocol: Cells were treated with the NSC23925 in RPMI1640 complete media at the indicated concentrations. The relative sensitivity of each line to NSC23925 was determined by MTT assay. A: Nonspecific toxicity of NSC23925 on SKOV3 vs SKOV-3TR. B: Nonspecific toxicity of NSC23925 on OVCAR8 vs OVCAR8TR. Drug cytotoxicity was assessed in vitro using the MTT assay. SKOV-3 and SKOV-3TR cells were used herein. Briefly, 2×10^3 cells per well were plated in 96-well plates in culture medium (RPMI 1640 supplemented with 10% fetal bovine serum and penicillin/streptomycin) containing increasing concentrations of drug. After 7 days of culture, 10 μl MTT (5 mg/ml in PBS, obtained from Sigma) were added to each well and the plates were incubated for 4 h. The resulting formazan product was dissolved with acid-isopropanol and the absorbance at a wavelength of 490 nm (A490) was read on a SPECTRAmax® Microplate Spectrophotometer (Molecular Devices, Sunnyvale, Calif.). The absorbance values were normalized by assigning the value of the control line in the medium without drug to 1.0 and the value of the no cell control to 0. Experiments were performed in triplicate.
# SKOV-3 and OVCAR8 cells = experiment: Calcein AM drug efflux assay in parental drug-sensitive cells; assay type: cell-based, human; conditions: SKOV-3 and OVCAR8, do not overexpress Pgp1
# Excerpt: as §1
# [5] = Doxorubicin, add NSC23925 0.1 μM
# [6] = Doxorubicin, add NSC23925 0.5 μM
# [7] = Paclitaxel, add NSC23925 0.1 μM
structure (smiles),measurement,setting,value
"COc1ccc(-c2cc(C(O)C3CCCCN3)c3ccccc3n2)cc1 (stereo not shown) [NSC23925, (2-(4-methoxyphenyl)quinolin-4-yl)(piperidin-2-yl)methanol]",Duration of inhibition of Pgp1 mediated transport after wash-out,[1],at least 4 days
same,"fold-reversal of drug resistance, OVCAR8TR",OVCAR8TR cells; [5],(2.3) fold
same,"fold-reversal of drug resistance, OVCAR8TR",OVCAR8TR cells; [6],(5.3) fold
same,"fold-reversal of drug resistance, OVCAR8TR","OVCAR8TR cells; Doxorubicin, add NSC23925 1 μM",(23) fold
same,"fold-reversal of drug resistance, OVCAR8TR","OVCAR8TR cells; ET-743, add NSC23925 0.1 μM",(1.2) fold
same,"fold-reversal of drug resistance, OVCAR8TR","OVCAR8TR cells; ET-743, add NSC23925 0.5 μM",(1.2) fold
same,"fold-reversal of drug resistance, OVCAR8TR","OVCAR8TR cells; ET-743, add NSC23925 1 μM",(0.9) fold
same,IC50,"OVCAR8TR cells; Doxorubicin, add NSC23925 0.1 μM, read-out: OVCAR8TR IC50 of Doxorubicin",12400 ± 360 nM
same,IC50,"OVCAR8TR cells; Doxorubicin, add NSC23925 0.5 μM, read-out: OVCAR8TR IC50 of Doxorubicin",5200 ± 471 nM
same,IC50,"OVCAR8TR cells; Doxorubicin, add NSC23925 1 μM, read-out: OVCAR8TR IC50 of Doxorubicin",1220 ± 122 nM
same,IC50,"OVCAR8TR cells; ET-743, add NSC23925 0.1 μM, read-out: OVCAR8TR IC50 of ET-743",5 ± 1 nM
same,IC50,"OVCAR8TR cells; ET-743, add NSC23925 0.5 μM, read-out: OVCAR8TR IC50 of ET-743",5 ± 1 nM
same,IC50,"OVCAR8TR cells; ET-743, add NSC23925 1 μM, read-out: OVCAR8TR IC50 of ET-743",7 ± 2 nM
same,IC50,"OVCAR8TR cells; PM00104, add NSC23925 0.1 μM, read-out: OVCAR8TR IC50 of PM00104",8 ± 2 nM
same,IC50,"OVCAR8TR cells; PM00104, add NSC23925 0.5 μM, read-out: OVCAR8TR IC50 of PM00104",6 ± 2 nM
same,IC50,"OVCAR8TR cells; PM00104, add NSC23925 1 μM, read-out: OVCAR8TR IC50 of PM00104",5 ± 2 nM
same,IC50,"OVCAR8TR cells; Paclitaxel, add NSC23925 0.5 μM, read-out: OVCAR8TR IC50 of Paclitaxel",72 ± 46 nM
same,IC50,"OVCAR8TR cells; Paclitaxel, add NSC23925 1 μM, read-out: OVCAR8TR IC50 of Paclitaxel",28 ± 47 nM
same,"fold-reversal of drug resistance, OVCAR8TR","OVCAR8TR cells; PM00104, add NSC23925 0.1 μM",(1) fold
same,"fold-reversal of drug resistance, OVCAR8TR","OVCAR8TR cells; PM00104, add NSC23925 0.5 μM",(1.3) fold
same,"fold-reversal of drug resistance, OVCAR8TR","OVCAR8TR cells; PM00104, add NSC23925 1 μM",(1.6) fold
same,"fold-reversal of drug resistance, OVCAR8TR",OVCAR8TR cells; [7],(2.7) fold
same,"fold-reversal of drug resistance, OVCAR8TR","OVCAR8TR cells; Paclitaxel, add NSC23925 1 μM",(12.1) fold
same,Potency compared with verapamil and CsA (calcein AM accumulation),[2],significantly greater
same,Half-maximal reversal of calcein AM accumulation deficit,[2]; SKOV-3TR and OVCAR8TR,100 nM
same,Lowest concentration with prominent effect on accumulation of calcein AM,[2]; SKOV-3TR and OVCAR8TR,1 nM
same,Near maximal reversal of calcein AM accumulation deficit,[2]; SKOV-3TR and OVCAR8TR,500 nM
same,"fold-reversal of drug resistance, SKOV-3TR",SKOV-3TR cells; [5],(1.4) fold
same,"fold-reversal of drug resistance, SKOV-3TR",SKOV-3TR cells; [6],(3.3) fold
same,"fold-reversal of drug resistance, SKOV-3TR","SKOV-3TR cells; Doxorubicin, add NSC23925 1 μM",(11.5) fold
same,"fold-reversal of drug resistance, SKOV-3TR","SKOV-3TR cells; ET-743, add NSC23925 0.1 μM",(0.8) fold
same,"fold-reversal of drug resistance, SKOV-3TR","SKOV-3TR cells; ET-743, add NSC23925 0.5 μM",(1) fold
same,"fold-reversal of drug resistance, SKOV-3TR","SKOV-3TR cells; ET-743, add NSC23925 1 μM",(1) fold
same,IC50,"SKOV-3TR cells; Doxorubicin, add NSC23925 0.1 μM, read-out: SKOV-3TR IC50 of Doxorubicin",16500 ± 210 nM
same,IC50,"SKOV-3TR cells; Doxorubicin, add NSC23925 0.5 μM, read-out: SKOV-3TR IC50 of Doxorubicin",6780 ± 160 nM
same,IC50,"SKOV-3TR cells; Doxorubicin, add NSC23925 1 μM, read-out: SKOV-3TR IC50 of Doxorubicin",1940 ± 220 nM
same,IC50,"SKOV-3TR cells; ET-743, add NSC23925 0.1 μM, read-out: SKOV-3TR IC50 of ET-743",5 ± 2 nM
same,IC50,"SKOV-3TR cells; ET-743, add NSC23925 0.5 μM, read-out: SKOV-3TR IC50 of ET-743",4 ± 1 nM
same,IC50,"SKOV-3TR cells; ET-743, add NSC23925 1 μM, read-out: SKOV-3TR IC50 of ET-743",4 ± 1 nM
same,IC50,"SKOV-3TR cells; PM00104, add NSC23925 0.1 μM, read-out: SKOV-3TR IC50 of PM00104",5 ± 2 nM
same,IC50,"SKOV-3TR cells; PM00104, add NSC23925 0.5 μM, read-out: SKOV-3TR IC50 of PM00104",7 ± 1 nM
same,IC50,"SKOV-3TR cells; PM00104, add NSC23925 1 μM, read-out: SKOV-3TR IC50 of PM00104",5 ± 2 nM
same,IC50,"SKOV-3TR cells; Paclitaxel, add NSC23925 0.1 μM, read-out: SKOV-3TR IC50 of Paclitaxel",302 ± 56 nM
same,IC50,"SKOV-3TR cells; Paclitaxel, add NSC23925 0.5 μM, read-out: SKOV-3TR IC50 of Paclitaxel",132 ± 47 nM
same,IC50,"SKOV-3TR cells; Paclitaxel, add NSC23925 1 μM, read-out: SKOV-3TR IC50 of Paclitaxel",37 ± 28 nM
same,"fold-reversal of drug resistance, SKOV-3TR","SKOV-3TR cells; PM00104, add NSC23925 0.1 μM",(1.2) fold
same,"fold-reversal of drug resistance, SKOV-3TR","SKOV-3TR cells; PM00104, add NSC23925 0.5 μM",(0.9^ fold
same,"fold-reversal of drug resistance, SKOV-3TR","SKOV-3TR cells; PM00104, add NSC23925 1 μM",(1.2) fold
same,"fold-reversal of drug resistance, SKOV-3TR",SKOV-3TR cells; [7],(1.03) fold
same,"fold-reversal of drug resistance, SKOV-3TR","SKOV-3TR cells; Paclitaxel, add NSC23925 0.5 μM",(2.4) fold
same,"fold-reversal of drug resistance, SKOV-3TR","SKOV-3TR cells; Paclitaxel, add NSC23925 1 μM",(8.4) fold
same,Reversal of drug resistance in H69/AR cells,[3],unable to reverse drug resistance
same,Cytotoxic effect of NSC23925 alone in parental OVCAR8,"[4]; <5-10 μM NSC23925 alone, cells lack Pgp1",no cytotoxic effect
same,IC50,"[4]; Homo sapiens, OVCAR-8, OVCAR8/OVCAR8TR, single agent, read-out: IC50 for NSC23925 (proliferation)",25000 nM
same,Effect on accumulation of calcein AM in parental drug-sensitive cells,SKOV-3 and OVCAR8 cells,no evident effect
